Measurements from patent US9522128B2 (FUNDACION PARA LA INVESTIGACION BIOMEDICA DEL HOSPITAL …, priority 2008, dated 2016).

Experiments:
[1] = tested on: CD3+ lymphocytes (human T cells); settings: cilastatin 200 μg/mL
Method: The sample was centrifuged at 120 g and was resuspended in 750 μL of RPMI medium (in the absence of FCS: fetal calf serum) to quantify the number of cells available using trypan blue. One hundred thousand cells per point were distributed.
Incubation was performed for 4 hours at 37° C. Cells were centrifuged for 6 minutes at 1200 rpm. The precipitate was resuspended in 100 μL of buffer (10 mmol/L HEPES, 150 mmol/L NaCl, 5 mmol/L KCl, 1 mmol/L Mg Cl2, 1.8 mmol/L CaCl2) and 5 μL of annexin-V. It was incubated in the dark for 10 minutes.
Intensity of green fluorescence of cells was quantified as displacement in the logarithmic scale from control (cells growing in 10% FCS) versus the number of cells analyzed. Cell debris was excluded from the analysis.

[2] = tested on: primary cultures of proximal tubular cells (PTCs); assay: Cell growth dynamics in primary culture of proximal tubular cells
[3] = tested on: primary cultures of proximal tubular cells; assay: Mitochondrial activity using MTT reduction; format: cell-based, pig; settings: presence of cilastatin with nephrotoxics
Method: Mitochondrial functionality of PTCs was measured by metabolic reduction of 3-(4,5-dimethylthiazole-2-yl)-2,5-diphenyltetrazole bromide (MTT, supplied by Calbiochem), performed by the mitochondrial enzyme succinate dehydrogenase, yielding a blue-colored compound (formazan). […] MTT was subsequently added to each well at a final concentration of 0.5 mg/mL and incubated for 3 hours at 37° C. in the dark. Once this incubation was completed, 100 μL of lysis buffer (20% SDS in 50% N,N-dimethylformamide, pH 4.7) were added, and the plate was incubated overnight at 37° C. in the dark. Absorbance was measured at 595 nm on the following day.
Percent viability was calculated as follows:
Real time MTT reduction was measured in semiconfluent proximal cells seeded in 24-well plates (16 mm in diameter) in which culture medium was replaced by MTT at 0.5 mg/mL of final concentration in PBS. This reduction was determined by measuring absorbance at 595 nm with an Olympus IX70 inverted fluorescence microscope coupled to a photomultiplier controlled from a SLM Aminco 2000 fluorimeter. […] In this test, as in the previous ones, vancomycin was directly added to the plate during measurement of absorbance. […]

[4] = tested on: primary cultures of proximal tubular cells; settings: 48 h, 11 nephrotoxics
Wistar rats [5] = assay: Preliminary in vivo study of cilastatin nephroprotection against acute toxic renal failure caused by cisplatin; set-up: species or system rat; settings: cisplatin 5 mg/kg plus cilastatin 75 or 150 mg/kg every 12 hours intraperitoneal
Method: Five animals, each subjected to a different treatment regimen, were preliminarily used.
At the time of killing, animals were weighed and anesthetized with ketamine (10 mg/kg) and diazepam (4 mg/kg). Once anesthetized, blood was drawn by cannulation of the abdominal aorta at the bifurcation level. This blood was kept for 30 minutes at 37° C. and subsequently for 1 hour at 4° C., after which it was centrifuged at 2000 rpm for 15 minutes at 4° C. This allowed for separation of blood serum, which was stored at −80° C. until use.

[6] = tested on: renal degradation of imipenem; settings: with cilastatin; cited from earlier work
DHP-I = DHP-I (Homo sapiens, UniProt P16444); settings: Koller 1985, Campbell 1988; cited from earlier work
DHP-I, sequence (P16444 17-385): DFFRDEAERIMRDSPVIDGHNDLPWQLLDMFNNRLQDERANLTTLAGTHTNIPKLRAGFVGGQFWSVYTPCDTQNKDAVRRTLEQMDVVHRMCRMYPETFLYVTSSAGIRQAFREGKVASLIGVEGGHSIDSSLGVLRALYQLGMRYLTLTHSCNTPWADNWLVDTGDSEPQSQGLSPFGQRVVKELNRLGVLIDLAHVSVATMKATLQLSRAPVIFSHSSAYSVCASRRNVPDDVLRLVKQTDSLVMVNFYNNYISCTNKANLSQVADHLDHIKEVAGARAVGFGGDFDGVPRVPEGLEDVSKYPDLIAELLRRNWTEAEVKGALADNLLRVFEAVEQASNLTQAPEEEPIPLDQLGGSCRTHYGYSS

[7] = tested on: primary cultures of proximal tubular cells; settings: cilastatin added to cultures with nephrotoxics, 24 hours
Method: Cells shed to the supernatant were collected by direct aspiration using an automatic pipet, and adherent cells were separated from the culture plate by trypsinization.
The PTCs thus obtained were separately fixed and permeabilized with 70% ethanol and stored at −20° C. After removing ethanol, cells were washed two times with PBS.
The count was performed in a FACScan cytometer (Beckton Dickinson) equipped with a simple argon ion laser. Windows were fixed based on the characteristics of FSC (size), SSC (complexity), FL2-H (height), FL2-A (area), and FL2-W (width). The latter two were used to rule out cell doublets. Analysis was performed using WinMDI 2.9 software.

Wistar rats [8] = assay: Extended in vivo study of cilastatin nephroprotection against acute toxic renal failure caused by cisplatin
Description: A total of 28 animals were used, which were randomized into 4 groups with a sample size n=6-8 animals per group.
Throughout the period, animals were given free access to both water and feed (standard diet) in a controlled light, temperature, and humidity environment. One day before killing, animals were introduced into metabolic cages with free access to feed and water ad libitum to collect 24-hour urine, in order to quantify urine output and protein concentration.
At the time of killing, animals (previously weighed) were anesthetized in the experimental operating room with ketamine (10 mg/kg) and diazepam (4 mg/kg) and were drawn blood by cannulation of the abdominal aorta at the bifurcation level. Blood was first incubated for 30 minutes at 37° C., and then for one hour at 4° C. Subsequent centrifugation at 2000 rpm for 15 minutes at 4° C. allowed for obtaining blood serum, which was frozen at −80° C. until use. […] Kidneys were subsequently removed, decapsulated, and kept in cold saline during their handling to minimize tissue degradation. Kidneys (right and left) were weighed and were subsequently handled similarly. […] The rest of the right kidneys, as well as left kidneys, were separated into cortex and medulla, and both samples were frozen in liquid nitrogen and stored at −80° C. until use.
Hemodynamic variables and serum and urine kidney function parameters (FIG. 14) were measured using a Dimension RxL autoanalyzer from Dade-Behring according to manufacturer instructions.
This time, urine samples were taken before killing, as indicated in the section describing the procedure.

[9] = Description: No data have been reported for humans. […] The resulting plot is shown in FIG. 14 (diamonds: rabbit data; triangles: rat data; blank squares: data from pig experiments; filled squares including a white point: data from the summary of product characteristics for humans).
tubular endothelium = settings: dose of 1 g/kg/day; Sack 1985; cited from earlier work
humans = settings: period immediately subsequent to transplant; cited from earlier work
[10] = tested on: primary cultures of proximal tubular cells; settings: 24 hours, with cilastatin; vancomycin, cyclosporin, tacrolimus, acetaminophen, cisplatin, gentamicin
Method: Cells were subsequently detached, and the final volume obtained was recorded. Cell lysate was subjected to a thermal shock, for which it was first heated at 100° C. for 5 min and then placed on ice. Each sample was subjected to sudden decompression. Samples were centrifuged at 12000 rpm for 5 min, and supernatant was collected.
For this purpose, PTCs were incubated with the different nephrotoxics under study, and the cumulative intracellular concentration of toxics in PTCs was quantified, in accordance with the procedure described at the start of the Examples.

[11] = tested on: cultures of cells of the proximal tubular epithelium; assay: Scanning electron microscopy of cell morphology; settings: 11 days; cyclosporin A 1 μg/mL without or with cilastatin 200 μg/mL
[12] = tested on: primary cultures of proximal tubular cells; settings: co-incubation with cilastatin; 24 hours aggression (12 hours for cisplatin), long-term survival 7 days

CC1(C)C[C@@H]1C(=O)N/C(=C\CCCCSC[C@H](N)C(=O)O)C(=O)[O-].[Na+] (relative stereo) [cilastatin, monosodium salt of [R—[R*,S*—(Z)]]-7-[(2-amino-2-carboxyethyl)thio]-2-[[(2,2-dimetylcyclopropyl)carbonyl]amino]-2-heptenoic acid]
protective effect on cyclosporin A induced T cell death [1]: absence of a protective effect | effect of co-incubation with cilastatin on the effect of nephrotoxics on cell growth ([2]; cilastatin 200 μg/mL with cyclosporin A or tacrolimus): partially prevents | effect upon growth dynamics, cell confluence, or monolayer morphology ([2]; increasing cilastatin doses for 14 days, up to almost 10 times plasma concentrations reached in vivo): No significant effect | day of culture from which cell growth recovers with cilastatin ([2]; with cyclosporin): ≥ 11 days | time from which cell growth recovers with cilastatin ([2]; with tacrolimus (FK-506), decrease from day 7): from the same time | restoration of mitochondrial electronic transfer capacity [3]: totally or partially restores | induction of apoptosis (nucleosomes) on co-incubation of nephrotoxics plus cilastatin [4]: induction of apoptosis ceases or is significantly reduced | weight loss or changes in plasma creatinine (Wistar rats [5]): no significant weight loss or changes in plasma creatinine | urinary excretion rate of imipenem [6]: up to 70 % of the initial imipenem dose administered | conversion of leukotriene D4 to leukotriene E4 (DHP-I): strongly inhibited | number of dead cells (sloughed to supernatant, anoikis) [7]: reduced in all cases the number of dead cells | increase of mean weight (Wistar rats [8]; cilastatin 75 mg/kg every 12 hours without cisplatin): approximately 14 grams | proteinuria and urinary osmolality (Wistar rats [8]; cisplatin 5 mg/kg, cilastatin 75 mg/kg every 12 hours intraperitoneal): completely reversed the values to normal levels | FINAL WEIGHT (Wistar rats [8]; end of the extended study (5 days), mean ± standard error): 273 ± 7 | plasma level up to which the dose/plasma level relationship is linear ([9]; all species): around 800 mg/L | minimum effective dose ([9]; estimated): 10 mg/kg body weight | estimated minimum nephroprotective dose in humans ([9]; mean value for a human adult): 750 mg/day | sign of renal toxicity (tubular endothelium): could cause sloughing of tubular endothelium | nephrotoxicity induced by CsA (humans): may effectively counteract | intracellular accumulation of nephrotoxics [10]: interferes with intracellular administration of all nephrotoxics tested | cell morphology by scanning electron microscopy [11]: these changes do not usually occur | cell growth / colony-forming units after nephrotoxic aggression (crystal violet) [12]: totally or partially restores cell growth
